Measured values: US20250145715A1, “B7-H3 TARGETING FUSION PROTEINS AND METHODS OF USE THEREOF” (GT Biopharma, Inc., priority 2021, published 2025)

Key:
[1] = test system: NCI-H460 large cell lung cancer cells; assay: NK cell CD107a / IFNγ flow cytometry against NCI-H460; type: cell-based, human; settings: normal donor and lung cancer patient samples, vs controls
Excerpt: FIGS. 24A-24F illustrate that B7-H3 TriKE enhances NK cell function against lung tumor targets. FIG. 24A is a graph showing pooled analysis of proportion of NK cells from healthy donors expressing CD107a+ against A549(N=6) tumor targets. FIG. 24B is a graph showing pooled analysis of proportion of NK cells from healthy donors expressing IFNγ against A549(N=6) tumor targets. FIG. 24C is a graph showing pooled analysis of proportion of NK cells from healthy donors expressing CD107a+ against NCI-H322 (N=5) tumor targets. FIG. 24D is a graph showing pooled analysis of proportion of NK cells from healthy donors expressing IFNγ against NCI-H322 (N=5) tumor targets. FIG. 24E is a graph showing pooled proportion of NK cells from healthy donors (black bars) or lung cancer patients (white bars) expressing CD107a+ against NCI-H460 (N=7). FIG. 24F is a graph showing pooled proportion of NK cells from healthy donors (black bars) or lung cancer patients (white bars) expressing IFNγ against NCI-H460 (N=7). ** p<0.01, *** p<0.001, and **** p<0.0001.
ADCC was measured in a flow cytometry assay by evaluating degranulation via CD107a (lysosomal-associated membrane protein LAMP-1) and intracellular IFNγ production. […] Samples were washed and evaluated in an LSRII flow cytometer (BD Biosciences, San Jose, CA, USA). […]

OVCAR8 cells = assay: IncuCyte real-time tumor-killing assay, OVCAR8; type: cell-based, human; settings: enriched NK cells, E:T 2:1, 30 nM, 48 h; vs controls
Procedure: Healthy donor or ovarian cancer PBMC cells were incubated with ovarian tumor targets at 2:1 E:T ratio for 4 hrs with 30 nM TriKE or control condition. FIG. 30A is a graph illustrating pooled proportion of NK cells from healthy donors expressing CD107a+ (degranulation) against OVCAR8 targets (N=8). FIG. 30B is a graph illustrating pooled proportion of NK cells from healthy donors expressing IFNγ cytokine production against OVCAR8 targets (N=8). FIG. 30C is a graph illustrating pooled proportion of NK cells from healthy donors expressing CD107a+ (degranulation) against OVCAR3 targets (N=4). […] FIG. 30I is a graph illustrating that tumor killing was evaluated using IncuCyte imaging assay. […] The percentage of Live (Nuclight Red+Caspase 3/7−) tumor cells was quantified over a 48-h period and normalized to tumor alone. Readings were obtained every 15 min (representative of four separate experiments). * p<0.05, ** p<0.01, *** p<0.001, and **** p<0.0001.
Tumor killing was evaluated in real-time using the IncuCyte platform. […] Caspase-3/7 green dye (Sartorious, Ann Arbor, MI, USA) was added to pick up dying cells that have not yet lost NuclightRed fluorescence. […] Images from three technical replicates were taken every 15 min for 48 h using a 4× objective lens and then analyzed using IncuCyte™ Basic Software v2018A (Sartorious). […]

In the case of “cam1615B7-H3: second-generation TriKE: humanized camelid anti-CD16 VHH, human wild-type IL-15, anti-B7-H3 mAb 376.96 scFv; SEQ ID NO:1”, the “NK cell function against NCI-H460” value [1] is reported as “strongly increased NK cell function” and the “killing of OVCAR8 tumor cells over two days” value (OVCAR8 cells) is reported as “robust and rapid tumor killing”.
